Assay results as given in the supplement of paper PMC13380429.

Legend:
Conditions in all cases: 72 h
Caco-2 [1] = assay: cell viability relative to DMSO; higher = less toxic
Calu-3 [2] = assay: as above
U2OS [3] = assay: as above
Vero E6 [4] = assay: as above
Caco-2 [5] = assay: relative viability EC50 (midpoint between 100% and the lowest measured viability); higher = less toxic
Calu-3 [6] = assay: as above
U2OS [7] = assay: as above
Vero E6 [8] = assay: as above
Caco-2 [9] = assay: drug sensitivity score (DSS) for viability; higher = more toxic; extreme values may be limits of the assay
Calu-3 [10] = assay: as above
U2OS [11] = assay: as above
Vero E6 [12] = assay: as above
HepG2 [13] = assay: cell viability relative to DMSO; higher = less toxic
HepG2 [14] = assay: drug sensitivity score (DSS) for viability; higher = more toxic; extreme values may be limits of the assay
HepG2 [15] = assay: relative viability EC50 (midpoint between 100% and the lowest measured viability); higher = less toxic

SMILES	cell viability (Caco-2 [1]; 1 nM) [%]	cell viability (Caco-2 [1]; 10 nM) [%]	cell viability (Caco-2 [1]; 100 nM) [%]	cell viability (Caco-2 [1]; 1000 nM) [%]	cell viability (Caco-2 [1]; 10000 nM) [%]	cell viability (Calu-3 [2]; 1 nM) [%]	cell viability (Calu-3 [2]; 10 nM) [%]	cell viability (Calu-3 [2]; 100 nM) [%]	cell viability (Calu-3 [2]; 1000 nM) [%]	cell viability (Calu-3 [2]; 10000 nM) [%]	cell viability (U2OS [3]; 1 nM) [%]	cell viability (U2OS [3]; 10 nM) [%]	cell viability (U2OS [3]; 100 nM) [%]	cell viability (U2OS [3]; 1000 nM) [%]	cell viability (U2OS [3]; 10000 nM) [%]	cell viability (Vero E6 [4]; 1 nM) [%]	cell viability (Vero E6 [4]; 10 nM) [%]	cell viability (Vero E6 [4]; 100 nM) [%]	cell viability (Vero E6 [4]; 1000 nM) [%]	cell viability (Vero E6 [4]; 10000 nM) [%]	relative viability EC50 (Caco-2 [5]) [µM]	relative viability EC50 (Calu-3 [6]) [µM]	relative viability EC50 (U2OS [7]) [µM]	relative viability EC50 (Vero E6 [8]) [µM]	drug sensitivity score (Caco-2 [9])	drug sensitivity score (Calu-3 [10])	drug sensitivity score (U2OS [11])	drug sensitivity score (Vero E6 [12])	cell viability (HepG2 [13]; 1 nM) [%]	cell viability (HepG2 [13]; 10 nM) [%]	cell viability (HepG2 [13]; 100 nM) [%]	cell viability (HepG2 [13]; 1000 nM) [%]	cell viability (HepG2 [13]; 10000 nM) [%]	drug sensitivity score (HepG2 [14])	relative viability EC50 (HepG2 [15]) [µM]
C[C@]12CCC(=O)C=C1CC[C@@H]1[C@@H]2CC[C@@]2(C)[C@H]1CC[C@]2(O)C(=O)CO [cortodoxone]	89.6	95.5	100	86.5	103	106	91	95.2	97.8	104	92.9	95.2	96.6	99.6	98.7	108	108	105	97.6	96.8	> 10	> 10	> 10	> 10	0	0	0	0							
CN(C)/N=N/c1[nH]cnc1C(N)=O [dacarbazine]	100	97.8	97	103	93.4	91.9	102	95.9	110	95.7	97.7	99.2	94.9	102	92.7	98.6	94.2	94.4	97.2	100	> 10	> 10	> 10	> 10	0	0	0	0	106	90.7	99.2	90.5	72.7	2.3	
Cc1cc(C)c(Nc2ccnc(Nc3ccc(C#N)cc3)n2)c(C)c1 [dapivirine]	104	94.5	99.3	86	47.8	108	100	97.1	100	74.4	97.7	100	101	99	40.3	93.7	101	92.9	94.7	61.5	1.49		3.05		4.9	1	3.4	2.8	107	120	95.4	103	17.3	4.3	3.38
Oc1ccc([C@@H]2Oc3ccc(O)cc3[C@@H]3CCC[C@@H]32)cc1 [erteberel]	95.4	94.4	96.7	92.8	86.8	108	109	108	98.3	102	97.5	95.6	102	98.9	82.9	94.8	99	92.5	99.4	87.8	> 10	> 10	> 10	> 10	0	0	0.5	0	102	101	97.6	108	52.4	2	
